The nature of series [1]: In vitro safety/cell viability MTT assay on normal RPE1 cells. The class given is cell-based, human. The conditions noted are these: human, RPE1 cells (noncancerous), normal RPE1 cells, MTT.
The next series has as its system RPE1 cells. Described as above. The format is cell-based, human. The note with it: RPE1, MTT, in words.
The test system of another series is mice. Briefly: In vivo acute (14-day) oral toxicity study. The source says:
GPower 3.0.10 software was used to estimate the sample size needed for the experiment and the number of mice per group but, according to the Organization for Economic Cooperation and Development (OECD) Test Guidelines No. 407 (OECD, 2008 and updated 2017) and under the International Academy of Science’s Guide for the Care and Use of Laboratory Animals, as well as the ARRIVE guidelines, to use the least number of mice per group for the acute single dose oral toxicity test.
Animals were divided randomly into nine groups (5 animals per group). Before the experiment, the body weight (BW) of all mice was recorded. All mice were made to fast for 24 h and treated once (day zero) then carefully monitored for 14 days.
Normal control group: mice received saline orally once;
Negative control group: mice received vehicle (DMSO) orally once;
Positive control group: mice were injected with Dox (15 mg/kg BW, i.p.) once.
Isatin-sulfonamide-derivative-compound-treated groups (2a, 3a, 3d and 4b, 4c and 4d) of mice received 250 mg/kg BW of each orally once.
The animals’ BWs were recorded at the end of the 14 days of observation. Blood samples were collected from the retro-orbital plexus and allowed to clot. Sera were prepared by centrifugation at 4000 rpm for 15 min and then kept frozen at − 80 °C for liver and kidney function tests (LFTs and KFTs). Thereafter, mice were deprived of food overnight, euthanized, and sacrificed by cervical dislocation. Liver and kidney tissues were collected, washed with ice-cold saline, and weighed. Excised weighed livers and kidneys were fixed in a suitable buffer for histological examination.
Liver and kidney tissues were fixed in 10% neutral buffered formaldehyde overnight and then embedded in paraffin, […] in serial grades of alcohols, cleared in xylene, and were subjected to […], where 4 μm thick tissue sections were cut by rotatory microtome. Tissue sections were stained with hematoxylin and eosin (H and E) for histological examination using full HD light microscopic imaging system (Leica Microsystems GmbH, Wetzlar, Germany). Standard procedures for sample fixation and staining were done as previously described.

The subject of a further series is HepG2 cells. Description: Cell cycle analysis by flow cytometry (PI staining). The class given is cell-based, human. On the procedure:
In 6-well plate, HepG2 (1 × 10^5 cells per well) were treated with either (0.1% DMSO) vehicle or 5 μM of 3a, 4b, and 4c compounds. After 48 h incubation, cells were harvested and fixed for 12 h using ice-cold 70% ethanol at 4 °C. Ethanol was removed and cells were washed by PBS and incubated for 30 min at 37 °C in 0.5 mL of PBS containing 1 mg/mL RNase. Then, cells were stained for 30 min with PI in the dark and the DNA content was determined using flow cytometer.
Background: In flow cytometry, cells or beads pass a laser one at a time.

Series [2] has as its system B-Cell Lymphoma-2 (Bcl-2). Description: Bcl-2 level in HepG2 cell lysate (ELISA). The format is cell-based, human. The conditions noted are these: HepG2 treated at IC50, 48 h. On the procedure: (§1) As previously described, with little modification, HepG2 cells were cultured in T25 flask until they reached 30% confluency. […] After treatment, cells were washed by PBS, trypsinized and centrifuged at 10,000 rpm. The formed pellets were washed twice with PBS and lysed in 1 mL ice-cold radio immunoprecipitation assay (RIPA) lysis buffer (50 mM Tris-HCl, pH 8.0, 150 mM NaCl, 1% Triton X-100, 0.5% sodium deoxycholate, 0.1% sodium dodecyl sulfate) and kept on ice for 20 min. Then, the mixture was centrifuged at 15,000 rpm for 15 min to remove any cell debris. The cell lysate was aliquoted and stored at −80 °C for determination of protein using Pierce BCA Protein Assay Kit (Thermo Fisher Scientific, Waltham/Boston, USA) according to manufacturer’s recommendations and determination of other biochemical parameters including EGFR, urokinase Plasminogen Activator (uPA), B-Cell Lymphoma-2 (Bcl-2), heparanase, and oxidative stress markers (glutathione; GSH and malonaldehyde; MDA).
(§2) Levels of EGFR [37] and heparanase in cell lysate were investigated using commercially available enzyme-linked immunosorbent assay (ELISA) kits supplied by Abcam (Cat. No. ab269558, ab256401, respectively). Levels of uPA [39] were measured using ELISA kit supplied by Creative Diagnostics (New York, USA, Cat. No. DEIA1630). Bcl-2 levels were determined using ELISA kit supplied by Zymed Laboratories, Carlsbad, California (Cat. No. 99-0042). Briefly, standards and samples were added to corresponding 96-well plate coated with suitable antibody. After the washing step, biotinylated anti-human antibody was added to each well. After washing away unbound biotinylated antibody, horseradish peroxidase (HRP)-conjugated streptavidin was pipetted into each well. A peroxidase substrate solution was added to all wells, after washing, and the color developed was proportionate to the amount of EGFR bound. Finally, the stop solution was added and the color intensity was measured at 450 nm.
On the technique in general: In an ELISA, binding on a coated surface is turned into a signal by an enzyme label.

For the next series, the system named is heparanase. Briefly: Heparanase level in HepG2 cell lysate (ELISA). The format is cell-based, human. The conditions noted are these: HepG2 treated at IC50, 48 h. On the procedure: as §1, §2
Another series concerns glutathione (GSH). Briefly: GSH level in HepG2 cell lysate (DTNB method). The class given is cell-based, human. The note with it: HepG2 treated at IC50, 48 h. On the procedure:
as §1
Glutathione levels were determined using GSH Biodiagnostics kit (Cairo, Egypt). The method is based on the reduction of 5,5′dithiobis (2-nitrobenzoic acid) (DTNB) with glutathione (GSH) to produce a yellow compound. The reduced chromogen is directly proportional to GSH concentration and its absorbance was measured at 405 nm.

The next series concerns malonaldehyde (MDA). Briefly: MDA level in HepG2 cell lysate (TBA method). The class given is cell-based, human. The conditions noted are these: HepG2 treated at IC50, 48 h. On the procedure: as §1
Levels of MDA, the marker of lipid peroxidation, were measured by thiobarbituric acid (TBA) method. TBA reacts with MDA in an acidic medium at temperature of 95 °C for 30 min to form colored thiobarbituric acid reactive (TBAR) product, the absorbance of which was measured at 534 nm. The MDA kit was purchased from Biodiagnostics, Cairo, Egypt.

[3] abbreviates: 14 days after single dose, compounds 250 mg/kg oral, doxorubicin 15 mg/kg I.P.
Where [4] appears, read: 14 days, compounds 250 mg/kg oral, Dox 15 mg/kg i.p.

SMILES strings stand for the structures. Several values for one entry are separate records, joined by “and”; a condition that tells them apart may be missing. Equal entries are not always repeated.

As usually defined, the CC50 is the concentration giving 50% cytotoxicity. Higher therefore signals lower toxicity to the cells. As usually defined, the viability is a per cent measure of how many cells are alive, often set against a control. Higher therefore signals better survival. As to `CC(=O)Nc1cccc(C(=O)C=C2C(=O)Nc3ccc(S(=O)(=O)N4CCCCC4)cc32)c1` [Compound 4c, N-(3-(2-(2-oxo-5-(piperidin-1-ylsulfonyl)indolin-3-ylidene)acetyl)phenyl)acetamide], in series [1], the CC50 at 48 h was more than 100 µM. In series [1] (100 p.p.m (μg/mL)), this compound came in with a viability at 48 h, 100 p.p.m (μg/mL) of 80.7%. The “Effect towards the noncancerous cell line (RPE1)” value in the series with RPE1 cells is “non-cytotoxic effect”. In the series with mice (setting [3]), the S.ALT is 28.41 ± 0.28 ^^ U/L, the S.AST is 37.35 ± 1.47 ^^ U/L, the S.Creatinine is given as 0.79 ± 0.04 ^^ mg/dL and the S.D.Bilirubin is 0.16 ± 0.007 ^^ mg/dL. In the series with mice (setting [3]), the S.T.Bilirubin is on record as 0.73 ± 0.014 ^^ mg/dL and the S.Urea is recorded as 55.76 ± 5.64 ^^ mg/dL. Also, in the series with mice (setting [4]), the “Histopathology of liver and kidney tissues (H and E) versus control groups” value was “no differences in the hepatic or renal tissue structures”; the “Kidney histology (H and E photomicrographs)” value is on record as “almost intact well-organized morphological features”; the “Liver histology (H and E photomicrographs)” value is recorded as “almost intact histological features of hepatic parenchyma”. Besides, the “Survival over the treatment period (14 days)” value in the series on mice (single acute oral dose of 250 mg/kg) was “survived”. Moreover, in the series on mice (single acute oral dose of 250 mg/kg, 14 days), the “Physical or abnormal changes (body weight, skin, fur, eyes, behavior, overall appearance)” value is on record as “No physical or abnormal changes were observed”. Also, in the series on HepG2 cells (HepG2, 5 µM, 48 h), the “%Cell Cycle Arrest/Phase %G0-G1” value came out at 36.44%, the “%Cell Cycle Arrest/Phase %G2-M” value came to 37.62%, the “%Cell Cycle Arrest/Phase %S” value is listed as 25.94% and the “%Cell Cycle Arrest/Phase %pre-G1” value amounted to 32.02%. Further, in the series on HepG2 cells (HepG2, negative control 7.1%), the “G2-M arrest, fold higher compared to the negative control” value is recorded as 5.30 fold. Further, the “Bcl-2 level in cell lysate” value in series [2] was 3.6 ± 0.11 nmol/mg protein and 3.6 ± 0.11 ^a*^,b* nmol/mg protein. Also, the “Heparanase level in cell lysate” value in the series with heparanase was 1449 ± 12.5 pmol/mg protein and 1449 ± 12.5 ^a*^,b* pmol/mg protein. Further, the “GSH level in cell lysate” value with glutathione (GSH) is listed as 2.1 ± 0.3 ^b* µmol/mg protein. The “MDA level in cell lysate” value with malonaldehyde (MDA) was found to be 14.5 ± 1.4 µmol/mg protein.
